PMC5809559, “DYRK1A inhibition and cognitive rescue in a Down syndrome mouse model are induced by new fluoro-DANDY derivatives” (Scientific Reports, 2018)
Read-outs that look alike come from different tables or passages of the source.

Columns and labels:
KB cells = test: KB cell proliferation / cytotoxicity (CellTiter-Blue); format: cell-based; settings: Homo sapiens, KB, 72 h, 72 h
Procedure: Cancer cell lines were obtained from the American Type Culture Collection (Rockville, MD, USA) and were cultured according to the supplier’s instructions. Briefly, human KB epidermal carcinoma cells were grown in Dulbecco minimal essential medium (DMEM) containing 4.5 g/L glucose supplemented with 10% fetal calf serum (FCS) and 1% glutamine, 100 UI penicillin, 100 µg/mL streptomycin and 1.5 µg/mL fungizone and maintained at 37 °C in a humidified atmosphere containing 5% CO2. Cell viability was assessed using Promega CellTiter-Blue TM reagent according to the manufacturer’s instructions. Cells were seeded in 96-well plates (5 × 10^3 cells/well) containing […]. After 24 h of culture, the cells were supplemented with […] of the studied compound dissolved in DMSO (less than 0.1% in each preparation). After 72 h of incubation, […] of resazurin was added for 2 h before recording fluorescence (λex = 560 nm, λem = 590 nm) using a Victor microtiter plate fluorimeter (Perkin-Elmer, USA).

[1] = Plasma and brain homogenate concentrations after Morris Water Maze (UHPLC-MS/MS); format: in vivo, mice; settings: for average plasma concentration: 20 mg/kg i.p. daily, after MWM; for Kp: mouse, brain, intraperitoneal, 20 mg/kg, read-out: partition coefficient at steady state (Kp = brain concentration/plasma concentration)
Procedure: […]. To that end, all animals were sacrificed directly after the Morris Water Maze (MWM) and plasma and brain homogenates (one hemisphere) were extracted and analyzed. […]. […] […]. However, Kp values might be underestimated due to high plasma levels that could saturate efflux transport to the brain.
All plasma and brain homogenate extracts were analyzed by an ultra-high performance liquid chromatography (UHPLC) system coupled to a triple-quadrupole mass spectrometer (Dionex Ultimate 3000 RSLC system coupled to a TSQ Vantage EMR, Thermo Scientific, Les Ulis, France). UHPLC separation was performed using a C18 column (HSS T3, 2.1 mm × 150 mm, 1.7 μm, Waters, Guyancourt, France) equipped with a guard column (HSS T3, 2.1 mm × 5 mm, 1.7 μm, Waters, Guyancourt, France) and maintained at 40 °C. The mobile phases were water, 0.1% formic acid (A) and acetonitrile (B). […]. Injection volume was 4 µL and the autosampler was maintained at 6 °C. Ionization was performed with a heated electrospray ionization source in positive mode. The source parameters were set as follows: spray voltage 3350 V, vaporizer temperature 250 °C, sheath gas (N2) pressure 55 psi, auxiliary gas pressure (N2) 25 psi, capillary temperature 350 °C. Analysis was performed under the Selected Reaction Monitoring (SRM) mode using several transitions for each compound at optimized collision energies (see Table SI2 and Figure SI1). […]. Data acquisition was performed using ThermoScientific Xcalibur 2.1 software system. All samples were analyzed in triplicate.
Two compounds, V[34] (Fig. 9) and 5d, were tested as internal standard (IS). […] Calibration curve points and quality control (QC) points were realized in spiked plasma or brain homogenate samples (Figure SI2). […]. Samples with concentrations above the upper calibration point were diluted to be in the calibration range. Limit of quantification (LOQ) was determined as the lowest point of the calibration curve at 1.6 pg/μL. QC samples were prepared at 14.5 and 58 pg/μL to validate the between-run precision (n = 3, RSD of 13% and 5%, respectively), between-run trueness was 95 and 88% respectively. […]. Limit of quantification (LOQ) was determined as the lowest point of the calibration curve at 1.6 pg/mg. QC samples were prepared at 3.2 and 22.4 pg/mg to validate the between-run precision (n = 3, RSD of 8% and 2% respectively), between-run trueness was 129 and 93% respectively.
Immediately following last day of training in the MWM, mice were sacrificed by decapitation for maximal blood collection and the brain was immediately extracted from the skull, the cerebellum removed and the hemispheres separated and frozen at −80 °C. Plasma was obtained as described above. […]. Subsequently, the IS was added to 400 µL of homogenate which was then centrifuged (12 min, 14000 × g, 4 °C). The supernatant was evaporated and transferred into 40 µL acetonitrile/methanol/water (2/2/1). After centrifugation (12 min, 14000 × g, 4 °C), 4 µL of supernatant was used for UHPLC-MS/MS analysis.

`Oc1ccc(-c2cnc3[nH]cc(-c4ccc(F)cc4)c3c2)cc1O` [Compound 5a, 3-(4-fluorophenyl)-5-(3,4-dihydroxyphenyl)-1H-pyrrolo[2,3-b]pyridine] gave an inhibition at 10 µM (KB cells; 10^−5 M, read-out: % Growth inhibition 10^−5 M) of less than 50%, an inhibition at 1 µM (KB cells; 10^−6 M, read-out: % Growth inhibition 10^−6 M) of 0% and an average plasma concentration ([1]; Ts65Dn mice, n = 9) of 0.84 ± 0.54 µM. The mean brain concentration ([1]; Ts65Dn mice, n = 5, assuming vascular space 15 µL/g tissue) was 6.67 ± 4.64 µM, the average plasma concentration ([1]; WT mice, n = 10) was 0.50 ± 0.28 µM and the mean brain concentration ([1]; WT mice, n = 4, assuming vascular space 15 µL/g tissue) was 6.61 ± 5.35 µM. The Kp ([1]; Ts65Dn mice) was 6.43 ± 3.38 and the Kp ([1]; WT mice) was 10.8 ± 9.55.
